In assay [1] the target is T1, TrkB (Homo sapiens, UniProt Q16620).
T1 construct: purchased Upstate 14-507M
Kind of assay: Trk B Fluorescence Polarization Kinase Assay. It is filed as biochemical. The conditions noted are these: uncertainty ±10%. The method, boiled down: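 The TrkB kinase reaction (50 nM enzyme, 20 ug/mL poly Glu4Tyr, 150 uM ATP, 5 mM MgCl2, 1% DMSO) ran 30 minutes at room temperature and was stopped with EDTA. Phosphorylation was detected by fluorescence-polarization displacement of a fluorescein phosphopeptide from an anti-phosphotyrosine antibody. IC50 came from a variable-slope sigmoidal fit of triplicates.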
On the technique in general: Polarisation of emitted light reports the rotation of a fluorescent probe.

In assay [2] the target is T2, FLT ligand-induced wild-type FLT3 phosphorylation (Homo sapiens, UniProt P36888).
T2 construct: host or cells: Baf3 (murine B cell lymphoma line)
T2 sequence (P36888 27-993): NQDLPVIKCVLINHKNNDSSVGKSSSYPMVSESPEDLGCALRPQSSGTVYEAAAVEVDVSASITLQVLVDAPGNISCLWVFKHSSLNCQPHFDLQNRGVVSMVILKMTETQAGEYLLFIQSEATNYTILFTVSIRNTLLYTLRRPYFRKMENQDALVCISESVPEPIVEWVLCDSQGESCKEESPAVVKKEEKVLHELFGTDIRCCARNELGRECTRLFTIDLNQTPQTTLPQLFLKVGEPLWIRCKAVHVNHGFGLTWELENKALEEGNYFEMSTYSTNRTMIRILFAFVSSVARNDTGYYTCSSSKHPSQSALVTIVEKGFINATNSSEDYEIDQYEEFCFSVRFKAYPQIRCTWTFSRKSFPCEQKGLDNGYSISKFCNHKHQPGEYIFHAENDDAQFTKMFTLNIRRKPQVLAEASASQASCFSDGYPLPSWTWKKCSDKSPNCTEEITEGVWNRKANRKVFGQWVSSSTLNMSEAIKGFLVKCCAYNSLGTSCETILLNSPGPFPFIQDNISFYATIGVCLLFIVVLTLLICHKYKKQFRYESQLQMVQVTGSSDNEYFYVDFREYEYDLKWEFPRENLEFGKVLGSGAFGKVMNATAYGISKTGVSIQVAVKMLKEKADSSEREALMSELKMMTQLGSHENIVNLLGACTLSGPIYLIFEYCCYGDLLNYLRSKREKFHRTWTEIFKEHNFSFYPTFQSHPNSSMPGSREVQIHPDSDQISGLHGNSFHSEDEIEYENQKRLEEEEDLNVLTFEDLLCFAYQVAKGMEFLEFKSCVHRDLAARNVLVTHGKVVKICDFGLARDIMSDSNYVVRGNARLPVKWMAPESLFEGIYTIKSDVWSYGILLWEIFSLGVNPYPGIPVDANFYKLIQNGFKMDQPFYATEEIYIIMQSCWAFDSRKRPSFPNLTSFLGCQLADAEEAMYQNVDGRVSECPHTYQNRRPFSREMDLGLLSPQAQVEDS
In words: Cell-Based FLT3 Receptor Elisa (Baf3 FLT3 cells). The conditions noted are these: uncertainty ±20%. Here is the method: Cell-Based FLT3 Receptor Elisa
Specific cellular inhibition of FLT ligand-induced wild-type FLT3 phosphorylation was measured in the following manner: Baf3 FLT3 cells overexpressing the FLT3 receptor were obtained from Dr. Michael Heinrich (Oregon Health and Sciences University). The Baf3 FLT3 cell lines were created by stable transfection of parental Baf3 cells (a murine B cell lymphoma line dependent on the cytokine IL-3 for growth) with wild-type FLT3. Cells were selected for their ability to grow in the absence of IL-3 and in the presence of FLT3 ligand.
Baf3 cells were maintained in RPMI 1640 with 10% FBS, penn/strep and 10 ng/ml FLT ligand at 37° C., 5% CO2. To measure direct inhibition of the wild-type FLT3 receptor activity and phosphorylation a sandwich ELISA method was developed similar to those developed for other RTKs (3,4). 200 μL of Baf3FLT3 cells (1×10^6/mL) were plated in 96 well dishes in RPMI 1640 with 0.5% serum and 0.01 ng/mL IL-3 for 16 hours prior to 1 hour compound or DMSO vehicle incubation. Cells were treated with 100 ng/mL Flt ligand (R&D Systems Cat# 308-FK) for 10 min. at 37° C. Cells were pelleted, washed and lysed in 100 ul lysis buffer (50 mM Hepes, 150 mM NaCl, 10% Glycerol, 1% Triton-X-100, 10 mM NaF, 1 mM EDTA, 1.5 mM MgCl2, 10 mM NaPyrophosphate) supplemented with phosphatase (Sigma Cat# P2850) and protease inhibitors (Sigma Cat #P8340). […]

In assay [3] the test system is MV4-11 cells. In words: Inhibition of MV4-11 cell proliferation (CellTiterGlo). It is filed as cell-based. The conditions noted are these: Homo sapiens; 72 hours growth; uncertainty ±20%. The method, then: Inhibition of MV4-11 and Baf3 Cell Proliferation
To assess the cellular potency of the compounds of the present invention, FLT3 specific growth inhibition was measured in the leukemic cell line MV4-11 (ATCC Number: CRL-9591). MV4-11 cells are derived from a patient with childhood acute myelomonocytic leukemia with an 11q23 translocation resulting in a MLL gene rearrangement and containing an FLT3-ITD mutation (AML subtype M4)(1,2). MV4-11 cells cannot grow and survive without active FLT3ITD.
To measure proliferation inhibition by test compounds, the luciferase based CellTiterGlo reagent (Promega), which quantifies total cell number based on total cellular ATP concentration, was used. […]
Compound dilutions or 0.1% DMSO (vehicle control) are added to cells and the cells are allowed to grow for 72 hours at standard cell growth conditions (37° C., 5% CO2). […] To measure total cell growth an equal volume of CellTiterGlo reagent was added to each well, according to the manufacturer's instructions, and luminescence was quantified. Total cell growth was quantified as the difference in luminescent counts (relative light units, RLU) of cell number at Day 0 compared to total cell number at Day 3 (72 hours of growth and/or compound treatment). One hundred percent inhibition of growth is defined as an RLU equivalent to the Day 0 reading. […]
In general terms: ATP-based viability assays read luminescence as a measure of living cells.

The target in assay [4] is T3, isolated kinase domain of the human c-kit receptor (Homo sapiens, UniProt P10721).
T3 construct: isolated kinase domain of the human c-kit receptor; purchased ProQinase lot SP005
Kind of assay: c-Kit Fluorescence Polarization Kinase Assay. The class given is biochemical. The conditions noted are these: uncertainty ±10%; read-out: ckit IC50. The method, then: c-Kit Fluorescence Polarization Kinase Assay
The compounds of the present invention are also specific inhibitors of c-Kit. Selection of preferred compounds of Formula I for use as c-Kit inhibitors was performed in the following manner using an in vitro kinase assay to measure inhibition of the isolated kinase domain of the human c-kit receptor in a fluorescence polarization (FP) protocol. The c-kit assay utilized the fluorescein-labeled phosphopeptide and the anti-phosphotyrosine antibody included in the Panvera Phospho-Tyrosine Kinase Kit (Green) supplied by Invitrogen. When c-kit phosphorylated the poly Glu4Tyr, the fluorescein-labeled phosphopeptide was displaced from the anti-phosphotyrosine antibody by the phosphorylated poly Glu4Tyr, thus decreasing the FP value. The c-kit kinase reaction was incubated at room temperature for 45 minutes under the following conditions: 1 nM c-kit (ProQinase, lot SP005), 100 ug/mL poly Glu4Tyr, 50 uM ATP, 5 mM MgCl2, 1 mM DTT, 0.01% Tween-20, 1% DMSO or compound in […], pH 7.5. The kinase reaction was stopped with the addition of EDTA. The fluorescein-labeled phosphopeptide and the anti-phosphotyrosine antibody were added and incubated for 30 minutes at room temperature and fluorescence polarization was read. Data points were an average of triplicate samples. Inhibition and IC50 data analysis were done with GraphPad Prism using a non-linear regression fit with a multiparamater, sigmoidal dose-response (variable slope) equation.

For orientation: IC50 means the concentration that gives 50% inhibition.

T1 sequence (Q16620 32-822): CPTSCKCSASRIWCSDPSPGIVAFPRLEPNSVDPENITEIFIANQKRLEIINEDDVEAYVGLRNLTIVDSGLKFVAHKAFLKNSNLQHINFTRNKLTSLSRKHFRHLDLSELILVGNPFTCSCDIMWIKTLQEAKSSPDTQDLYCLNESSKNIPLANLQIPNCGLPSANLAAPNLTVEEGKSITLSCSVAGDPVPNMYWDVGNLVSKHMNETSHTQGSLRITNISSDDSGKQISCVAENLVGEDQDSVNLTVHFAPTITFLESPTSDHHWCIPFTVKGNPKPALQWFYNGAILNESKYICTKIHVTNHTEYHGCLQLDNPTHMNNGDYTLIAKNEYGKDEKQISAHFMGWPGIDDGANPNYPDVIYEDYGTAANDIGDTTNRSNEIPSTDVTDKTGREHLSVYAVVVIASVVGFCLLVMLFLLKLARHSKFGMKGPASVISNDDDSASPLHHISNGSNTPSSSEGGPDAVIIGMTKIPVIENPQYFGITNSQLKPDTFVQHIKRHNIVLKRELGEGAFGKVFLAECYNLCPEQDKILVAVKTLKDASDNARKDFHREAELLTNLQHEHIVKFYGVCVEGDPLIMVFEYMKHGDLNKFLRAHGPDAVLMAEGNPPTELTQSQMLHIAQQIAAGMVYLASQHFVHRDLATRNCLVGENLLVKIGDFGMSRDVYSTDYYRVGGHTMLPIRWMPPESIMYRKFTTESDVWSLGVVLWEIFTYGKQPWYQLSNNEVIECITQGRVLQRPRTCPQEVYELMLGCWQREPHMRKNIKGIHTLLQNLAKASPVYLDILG
T3 sequence (P10721 589-937 limits assumed): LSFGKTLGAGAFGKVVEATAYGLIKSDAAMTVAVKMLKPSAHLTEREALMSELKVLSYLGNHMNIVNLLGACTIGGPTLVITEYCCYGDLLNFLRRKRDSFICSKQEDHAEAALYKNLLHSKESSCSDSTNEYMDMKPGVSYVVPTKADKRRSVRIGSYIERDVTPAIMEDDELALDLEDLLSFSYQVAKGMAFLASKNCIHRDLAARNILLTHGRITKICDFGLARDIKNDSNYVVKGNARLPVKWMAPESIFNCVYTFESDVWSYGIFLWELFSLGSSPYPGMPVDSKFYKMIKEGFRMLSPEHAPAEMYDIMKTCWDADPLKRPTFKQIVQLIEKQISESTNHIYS

For `COc1cc2ncnc(C3CCN(C(=O)Nc4ccc(C(C)O)cc4)CC3)c2cc1OC` (stereo not shown) [Compound 55, 4-(6,7-Dimethoxy-quinazolin-4-yl)-piperidine-1-carboxylic acid [4-(1-hydroxy-ethyl)-phenyl]-amide], the results for the IC50 in assay [1] and in assay [2] were 39.1 µM and 1000 nM, respectively.

As to `COc1cc2ncnc(C3CCN(C(=O)Nc4ccc(N5CCN(C)CC5)cc4)CC3)c2cc1OC` [Compound 20, 4-(6,7-Dimethoxy-quinazolin-4-yl)-piperidine-1-carboxylic acid [4-(4-methyl-piperazin-1-yl-phenyl)]-amide], the figures for the IC50 in assay [1] and in assay [2] were 39.9 µM and more than 3000 nM, respectively.

For the compound `CC(C)Oc1ccc(NC(=O)N2CCC(c3ncnc4cc(OCCCN5CCN(C)CC5)ccc34)CC2)cc1` [Compound 39], the figures for the IC50 in assay [1], in assay [3] and in assay [4] were 0.6 µM, 14 nM and 14 nM, respectively.

Source of the values: patent US8071768B2, “Alkylquinoline and alkylquinazoline kinase modulators” (Janssen Pharmaceutica, N.V., priority 2005, dated 2011).
